Experimental data: patent US20090311185A1, “Peptide having antianxiety activity and screening method therefor” (priority 2005, published 2009)
“Also recorded” adds a separate entry of the source. Each block holds one substance with its values, some of them ahead of it. Bridges are numbered along the chain shown (N, C = ends). Roman numbers before positions name the chains, in order. Where no end group is shown, it is not given here.

Experiments:
rats [1] = assay: Defensive burying test after intracerebroventricular administration; format: in vivo, rat; settings: F344 male rats, 15 min test, vs vehicle
Protocol: The influence of relaxin-3 on an anxiety activity was determined using a defensive burying test (Treit et al., Pharmacology Biochemistry and Behavior, 15, p. 619-626, 1981).
F344 male rats (7 weeks of age; Japan Charles River) were fed foods for experimental animals (MF; Oriental Yeast) to be adapted. The rats (150 to 200 g) received cannulation into the lateral cerebroventricle under anesthesia. Administration experiments of relaxin-3 were carried out a week or later.
The tested rats were placed and left in a testing chamber, which floor was covered with a bedding material to a height of 5 cm, for 30 minutes or more once a day from 3 days before the defensive burying test, so as to allow the tested rats to habituate to the testing environment. The rats were habituated to the environment without the stimulating electrode until the test. […]
On test day, the tested rats were placed in a test chamber (with bedding material to a height of 5 cm) with a stimulating electrode, so as to start an experiment. […] All behaviors of the tested rats were recorded using a videocamera, and the burying behavior time (burying time (sec.)) within 15 minutes from the first electrical shock was measured using the recorded tape. […]

mice = assay: Elevated plus-maze test after intracerebroventricular administration (mice); format: in vivo; settings: BALB/c male mice, 1 nmol/mouse intracerebroventricular, 5 min test, vs vehicle
Protocol: The influence of relaxin-3 on anxiety activity was determined using an elevated plus-maze. An elevated plus-maze test is a behavioral pharmacological test which is widely used in the measurement of anxiety level of experimental animals such as rats or mice, or for the evaluation of drug efficacies of antianxiety drugs, using exploring behaviors in open arms, such as the time spent in open arms, as an index.
BALB/c male mice (7 weeks of age; Japan Charles River) were received cannulation into the lateral cerebroventricle under anesthesia. The mice were then fed, and administration experiments of relaxin-3 were carried out a week or later.
The human relaxin-3 (Peptide Institute, Inc.) was dissolved in physiological saline and was diluted to a final concentration of 1 nmol/mouse.
The tested mice with guide cannula implantation were intracerebroventricularly administered with each 2 μL of the human relaxin-3 administration solution (N=8) or a vehicle solution (physiological saline) (N=9) at a rate of 1 μL per minute using an infusion pump.
Antianxiety activities were measured using an elevated plus-maze. […] The behaviors of mice were recorded by a video, and the number of entries into the open and closed arms and the time spent in the open and closed arms were measured on each mouse by analyzing the video after the completion of the test. […]

rats [2] = assay: Elevated plus-maze test after intracerebroventricular administration (rats); format: in vivo, rat; settings: Wistar male rats, 5 min test, vs vehicle
Protocol: The influence of relaxin-3 on anxiety activity was determined using an elevated plus-maze.
Wistar male rats (9 weeks of age; Japan Charles River) were received cannulation into the lateral cerebroventricle under anesthesia. The rats were then fed, and administration experiments of relaxin-3 were carried out a week or later.
The human relaxin-3 (Peptide Institute, Inc.) was dissolved in physiological saline and was diluted to a final concentration of 10 pmol/rat or 50 pmol/rat.
The tested rats with guide cannula implantation were administered with 5 μL each of the human relaxin-3 administration solution (10 pmol/rat, N=8; or 50 pmol/rat, N=7), or vehicle group (physiological saline, N=7) at a rate of 2.5 μL per minute using an infusion pump.
Antianxiety activities were measured using an elevated plus-maze. The maze was raised 50 cm above the floor and included four arms arranged in the form of a plus sign (+) spread from the central platform (10 cm×10 cm) positioned at the center. Two opposite arms (50 cm long and 10 cm wide) are open arms, and the other two opposite arms (50 cm long, 10 cm wide with walls 40 cm high) were closed arms. Lighting was arranged so as to set the luminance at the floor in the open arms was 60 to 80 lux. A rat 10 minutes after the intracerebroventricular administration was placed in the center of the plus-maze so as to face one of the open arms, and the test was carried out for 5 minutes. The test was conducted only within a period from 11:00 to 16:00. The behaviors of rats were recorded by a video, and the number of entries into the open and closed arms and the time spent in the open and closed arms were measured on each mouse by analyzing the video after the completion of the test. FIGS. 7 and 8 show the total number of entries into open and closed arms and the percentage of time spent in open arms within 5 minutes, respectively. To compare among the human relaxin-3 administration groups and the vehicle group, a significant difference test by the t-test was conducted.

THP-1 cells = THP-1 cells of the immune system; WO 01/81562, Bathgate et al. 2002; cited from earlier work
SALPR = biological target: T1, SALPR (Homo sapiens, UniProt Q9NSD7); assay: Suppression of forskolin-increased transcription activity (CRE-PLAP reporter) in SALPR-SE302 cells; format: cell-based; settings: forskolin 1 μmol/L, 1 day incubation
T1 construct: the area encoding SALPR is known to be from position 1 to position 1407 (1410 base pairs, 469 amino acid residues); expressed in transfected cells; host or cells: SE302 cells (HEK293 clone carrying the CRE-PLAP reporter), transduced with retrovirus vector pBabeCL(SALPR)IH and selected with hygromycin
T1 sequence (Q9NSD7 1-469): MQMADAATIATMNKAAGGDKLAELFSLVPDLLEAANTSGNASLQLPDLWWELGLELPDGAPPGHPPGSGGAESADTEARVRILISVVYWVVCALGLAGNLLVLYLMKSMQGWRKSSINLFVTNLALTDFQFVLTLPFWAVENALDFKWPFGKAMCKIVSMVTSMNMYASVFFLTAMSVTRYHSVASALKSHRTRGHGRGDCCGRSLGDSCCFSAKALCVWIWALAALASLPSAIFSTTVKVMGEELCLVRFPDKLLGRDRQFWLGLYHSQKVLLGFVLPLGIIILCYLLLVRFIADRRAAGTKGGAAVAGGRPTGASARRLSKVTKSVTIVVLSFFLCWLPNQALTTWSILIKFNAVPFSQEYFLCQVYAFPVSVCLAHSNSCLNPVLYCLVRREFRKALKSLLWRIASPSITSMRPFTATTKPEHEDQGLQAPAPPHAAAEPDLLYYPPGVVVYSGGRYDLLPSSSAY
Protocol: SE302 cells (3×10^3) constructed in Example 5 above were cultured in a 96-well plate (Asahi Techno Glass) using 100 μl of DMEM (Sigma) supplemented with […] fetal bovine serum (FBS) and PS (hereinafter called “culture medium”). On the following day, the retrovirus vector prepared in Example 4 was appropriately diluted and a 100-μl portion of the dilution and polybrene (also called as hexadimethrine bromide, Sigma) prepared in the culture medium (at a final concentration of 8 μg/ml) were added to the SE302 cells. On the following day, the culture medium was replaced by 200 μl of a culture medium supplemented with 500 μg/ml hygromycin (Invitrogen) and then incubation was continued. The SE302 cells for SALPR gene transfer grown under these conditions (hereinafter called “SALPR-SE302 cells”) were appropriately subcultured for experimental use.
SALPR-SE302 cells constructed in Example 6 above were suspended in a medium for measuring transcription activity (DMEM supplemented with 10% FBS (inactivated at 65° C. for 30 minutes)) and then inoculated in a 96-well plate (Beckton Dickinson) at 1×10^4 cells/well. […]

[3] = 50 pmol/rat intracerebroventricular

Substance: human relaxin-3: Synthetic human relaxin-3: B-chain SEQ ID NO: 5 and A-chain SEQ ID NO: 6 bonded through disulfide bonds (beta RAAPYGVRLCGREFIRAVIFTCGGSRW; alpha DVLAGLSSSCCKWGCSKSEISSLC; disulfide I:10-II:11, I:22-II:24, II:10-II:15; not fully specified; ends not checked; listed as Homo sapiens)
burying behavior time (rats [1]; 0.05 nmol/rat intracerebroventricular): decreased | burying behavior time (rats [1]; 1 nmol/rat intracerebroventricular, Dunnett P<0.05): significant decrease | total number of entries into open and closed arms (mice): no difference | time spent in open arms (mice; P<0.05): significant increase | total number of entries into open and closed arms (rats [2]; 10 pmol/rat intracerebroventricular): no difference | time spent in open arms (rats [2]; 10 pmol/rat intracerebroventricular, P<0.05): statistically significantly high | time spent in open arms (rats [2]; [3]): increase | total number of entries into open and closed arms (rats [2]; [3]): no difference

Substance: relaxin-3: Relaxin-3 (Phoenix Pharmaceuticals) used in the SALPR reporter assay; mature two-chain polypeptide also known as INSL7
intracellular cyclic AMP (cAMP) (THP-1 cells): increase | transcription activity increased by addition of forskolin (alkaline phosphatase reporter) (SALPR): suppresses; also recorded: specific dose-dependent suppression

transcription activity increased by addition of forskolin (alkaline phosphatase reporter) (SALPR): not affected
Substance: insulin [reference compound]
